Experimental findings from publication PMC9136613 (Acta Pharmaceutica Sinica. B, 2022) are described below.

For the assay, the target named is T1, CCT4 (Homo sapiens, UniProt P50991).
T1 sequence (P50991 2-539): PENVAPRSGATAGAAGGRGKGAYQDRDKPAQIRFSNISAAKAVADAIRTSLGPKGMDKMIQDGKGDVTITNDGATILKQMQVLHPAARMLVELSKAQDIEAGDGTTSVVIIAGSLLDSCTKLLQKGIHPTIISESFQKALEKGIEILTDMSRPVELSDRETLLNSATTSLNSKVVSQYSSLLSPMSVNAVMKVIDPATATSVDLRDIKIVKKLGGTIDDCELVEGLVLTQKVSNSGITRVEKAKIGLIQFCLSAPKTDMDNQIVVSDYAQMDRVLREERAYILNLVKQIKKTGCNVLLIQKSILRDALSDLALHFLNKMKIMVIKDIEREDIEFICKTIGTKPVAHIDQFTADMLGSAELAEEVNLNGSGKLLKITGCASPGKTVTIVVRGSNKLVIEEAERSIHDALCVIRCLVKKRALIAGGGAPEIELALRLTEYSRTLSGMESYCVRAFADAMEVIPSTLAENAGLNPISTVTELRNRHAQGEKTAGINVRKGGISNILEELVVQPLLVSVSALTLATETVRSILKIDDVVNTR
Description: SPR on immobilized recombinant CCT4. The format is binding.

As a reminder, the Kd is the equilibrium constant for the complex coming apart. anticarin-β: the Kd is about 2.2 µM.
